One data set has as its system osteocalcin. The experiment in a line: Serum osteocalcin ELISA, irradiated mice treated with risedronate (Example 4b). The format is in vivo. Particulars: 2 Gy irradiated mice; risedronate 30 μg/kg every other day. The procedure: (§1) Tissue collection: 12 individuals from each group were sacrificed at 1, 2, and 3 weeks following the initial radiation exposure. Each mouse weighed then anesthetized using isoflurane, and blood was collected for serum analysis by cardiac puncture and exsanguination followed by cervical dislocation to ensure death. Serum was isolated by centrifugation, flash frozen in liquid nitrogen, and stored at −80° C. The left and right hind limbs as well as the vertebral column were collected for analysis. Hind limbs were removed and disarticulated. Tibiae and femora were cleaned of soft tissue and fixed in a solution of 10% formalin. After 48 hours, the bones were placed in 70% ethanol. The vertebral column was frozen at −20° C. to ensure microcomputed tomography (microCT) analysis of the fifth lumbar vertebrae (L5).
(§2) Serum Chemistry: Serum samples were analyzed for circulating markers of bone formation and resorption. ELISA kits for osteocalcin (Biomedical Technologies, Inc., Stoughton, Mass.) and tartrate-resistant acid phosphatase (TRAP5b) (Immunodiagnostic Systems, Inc., Fountain Hills, Az.), respectively. The analyses were performed according to protocols provided by the manufacturers.

For the next data set, the system named is osteoclasts. Kind of data set: Histological analysis of osteoclast surface (TRAP staining), proximal tibia trabecular bone (Example 4c). In kind it is in vivo, mice. The conditions noted are these: one week after exposure, but not two and three weeks; 2 Gy; risedronate 30 micrograms/kg every other day; versus non-irradiated control. An excerpt: Osteoclast Identification: Following tomographic analysis, the left tibiae were decalcified using a formic acid solution (Immunocal; Decal Chemical Corp., Talman, N.Y.) and embedded in a glycol methacrylate resin (ImmunoBed™; Polysciences, Wasrrington, Pa.). The samples were cut into sagittal sections with a thickness of 3 μm. A subset of each group (n=5-6) was selected for analysis. Each slide was stained with TRAP using a commercial kit (Sigma, St. Louis, Mo.) to identify osteoclasts and counterstained with hematoxylin, Radiographs assessed the earliest time point of complete decalcification. […] Osteoclast presence was determined by tartrate resistant acid phosphatase (TRAP) staining of the slides using a commercial kit (Sigma; St. Louis, Mo.) and then counterstaining with hematoxylin (Sigma).
Histomorphometric evaluation was performed from captured micrographs (200×) throughout the metaphysis, starting approximately 0.25 mm distal from the growth plate (in order to exclude the primary spongiosa) and extending a further 0.5 mm. Bone histomorphometric parameters for the proximal metaphysis of the tibia were measured as described in the report of the American Society of Bone and Mineral Research (ASBMR) Histomophometry Nomenclature Committee (22). Surface measurements were quantified relative to total bone surface (BS). […]

Data set [1] has as its system female Sprague-Dawley rats. The experiment in a line: Rat model, clinically-modeled radiation dose regimen with risedronate, tibia microCT (Example 5). In kind it is in vivo. The conditions noted are these: risedronate 0.1 mg/kg/week subcutaneously; for Conn. Dens. (connectivity density) / SMI (structural model index) / Tb. N. (trabecular number) / Tb. Sp. (trabecular spacing) / Tb. Th (trabecular thickness) / BV/TV (bone volume fraction): mean ± SEM. The text has this: The right hindlimb from twenty-one week old female Sprague-Dawley rats were irradiated using a clinical irradiator (linear accelerator; LINAC; Wake Forest University). The dose applied was 16 Gy given as 4 fractions of 4 Gy each. This dose is the equivalent in terms of biological impacts on the hip during the course of radiation therapy for cancer, as determined by radiation biophysicists. Irradiations (all four total) were provided over the course of two weeks. Animals either received no radiation, radiation only, or radiation+risedronate injection (0.1 mg/kg/week subcutaneously). Administration of risedronate was provided one day prior to the first irradiation, then three times per week until sacrifice.
Animals were sacrificed two and four weeks after exposure. Hindlimbs were removed, and the tibiae were examined via microCT for several parameters. Meanings of the following trabecular parameters as they relate with conditions of increased resorption or atrophy are provided in Example 3 Methods Section: BV/TV; connectivity density (Conn.Dens.); trabecular thickness (Tb.Th.); trabecular number (Tb.N); and trabecular spacing (Tb.S.) were again determined. All measurements were taken within a region extending 1 mm distal to the growth plate.

For another data set, the system named is minipigs. Particulars: 2.5 vs 0.5 mg/kg/day oral; cited from earlier work.
The conditions of data set [2]: realistic order stated in text; 1% assumed for dose conversion; cited from earlier work.
The test system of another data set is TRAP5b. The experiment in a line: Serum TRAP5b ELISA, irradiated mice treated with risedronate (Example 4b). In kind it is in vivo. Particulars: 2 Gy irradiated mice, risedronate 30 μg/kg every other day, 7, 14 and 21 days. The procedure: as §1, §2
On the technique in general: In an ELISA, binding on a coated surface is turned into a signal by an enzyme label.

The next data set has as its system OVX rat. The conditions noted are these: OVX rats; administered orally; cited from earlier work.
A further data set has as its system female C57BL/6 mice. The experiment in a line: Risedronate treatment of radiation-induced bone loss in mice, microCT (Example 4). The format is in vivo. The conditions noted are these: 2 Gy whole body X-rays.
The test system of a further data set is rats. Particulars: 0.1 mg/kg/week administered subcutaneously; cited from earlier work.
In the next data set the test system is aged rats. The conditions noted are these: aged rats (9 months then allowed to mature 60 days); 0.02 or 0.04 mg/kg/wk; cited from earlier work.
The test system of another data set is female B6 mice. The experiment in a line: High dose zoledronate against radiation-induced bone loss in mice, microCT (Example 6). Particulars: for radiation-induced bone loss: 12-week-old mice, 2 Gy whole body X-rays, single 10 mg/kg dose of zoledronate, microCT 2 weeks after irradiation, 10 mg/kg. The format is in vivo. The procedure:
The antiresorptive bisphosphonate zoledronate was selected as representative of the class of antiresorptive agents and was tested, at high doses of 10 mg/kg, for its ability to prevent radiation-induced bone loss.
12-week-old female B6 mice were either 1) not irradiated and treated with a placebo injection, 2) irradiated with a 2 Gy whole body dose of X-rays and treated with a placebo injection, or 3) irradiated with a 2 Gy whole body dose of X-rays and treated with a single 10 mg/kg dose of […]. Bones were collected and examined by microCT 2 weeks after irradiation and zoledronate injection.

The conditions of data set [3]: cited from earlier work.
[4] abbreviates: 2 Week Examination, 16 Gy (4 x 4 Gy).
The mark [5] stands for this setting: 4 Week Examination, 16 Gy (4 x 4 Gy).
Setting [6] is: risedronate 30 μg/kg subcutaneous every other day.

Marks after values point to notes of the source that are not given here.

Turning to `O=P(O)(O)C(O)(Cc1cccnc1)P(=O)(O)O` [risedronate], the “serum osteocalcin levels (marker for bone formation)” value with osteocalcin is “trended to decrease levels”. The “osteoclast surface, proximal tibia trabecular bone” value in the data set on osteoclasts is “greater osteoclast surface”. Further, in data set [1] (setting [4]), the “Conn. Dens. (connectivity density)” value is listed as 95.4 ± 4.4^b l/mm^3, the “SMI (structural model index)” value is recorded as 0.83 ± 0.07^e, the “Tb. N. (trabecular number)” value is given as 4.02 ± 0.11^g and the “Tb. Sp. (trabecular spacing)” value is given as 216 ± 8^g μm. Besides, the “Tb. Th (trabecular thickness)” value in data set [1] (setting [4]) is recorded as 90.1 ± 1.4^b. Moreover, the “BV/TV (bone volume fraction)” value in [1] (2 Week Examination, right hindlimb 16 Gy (4 fractions of 4 Gy), tibia microCT) is on record as 31.9 ± 0.79^e %. Further, the “effect on radiation-induced trabecular deterioration relative with control” value in data set [1] (2 weeks, rats, 16 Gy) is recorded as “largely mitigated these changes”. Further, in data set [1] (2 weeks, rats), the “sparing effect on connectivity of the trabeculae compared with the differences after only receiving radiation” value is recorded as 12%. In data set [1] (setting [5]), the “BV/TV (bone volume fraction)” value was 34.4 ± 1.2^b,^f %, the “Conn. Dens. (connectivity density)” value is 109.3 ± 4.6^e l/mm^3, the “SMI (structural model index)” value was 0.68 ± 0.12^a,^f and the “Tb. N. (trabecular number)” value was 4.37 ± 0.09^f. In addition, in data set [1] (setting [5]), the “Tb. Sp. (trabecular spacing)” value is on record as 193 ± 5^f μm and the “Tb. Th (trabecular thickness)” value was 90.9 ± 1.1^c,^h. In [1] (Week 4, rats, 16 Gy), the “evidence of trabecular deterioration via microCT relative with control” value is “has disappeared by Week 4”. Also, in the data set on minipigs, the “preserving architecture, comparison of oral doses” value is reported as “more pronounced in animal models (minipigs) using 2.5 mg/kg/day than 0.5 mg/kg/day”. In addition, the oral bioavailability in data set [2] was 0.5-0.7%. Further, the “serum TRAP5b levels (marker for osteoclast activity)” value in the data set on TRAP5b is on record as “reduced at all time points”. Further, the “serum TRAP5b levels (marker for osteoclast activity)” value with TRAP5b (listed as Risedronate) was “reduced TRAP5b levels at all time points”. For the same compound, the “oral doses at which improvement in bone mineral density and preservation of microarchitecture generally occurred” value in the data set on OVX rat is “greater than 0.5 mg/kg/day”. For the same compound, in the data set on female C57BL/6 mice (setting [6]), the “radiation-induced bone loss at the 5th lumbar vertebra (FIG. 13)” value is listed as “prevents rapid radiation-induced bone loss” and the “radiation-induced bone loss at the distal femur (FIG. 12)” value is reported as “prevents rapid radiation-induced bone loss”. In addition, the “radiation-induced bone loss (proximal tibia, distal femur and 5th lumbar vertebra)” value with female C57BL/6 mice (risedronate 30 μg/kg/injection subcutaneous every other day, 1, 2 and 3 weeks) is reported as “prevents radiation-induced bone loss”. The “bone volume and fraction in GIO” value in the data set with rats was “increased bone volume and fraction by reducing turnover”. In the data set with aged rats, the “histomorphometric changes in the tibial diaphysis” value was “no histomorphometric changes”.
For the compound `O=P(O)(O)C(O)(Cn1ccnc1)P(=O)(O)O` [zoledronate], the results for the radiation-induced bone loss entry with female B6 mice and in the data set with female B6 mice (listed as Zoledronate) were “prevents radiation-induced bone loss” and “prevented the bone loss”, respectively. Moreover, the “bone mass versus untreated, non-irradiated levels” value with female B6 mice (growing mice, 2 Gy, single 10 mg/kg zoledronate, 2 weeks) was “increased to greater than untreated, non-irradiated levels”.
With “Denosumab: fully human anti-RANKL antibody that binds RANK ligand and blocks its binding to RANK, formerly AMG162 (Amgen)”, the “effect of low doses on markers for bone formation” value in [3] (0.01 mg/kg and 0.03 mg/kg) is “reduced markers for bone formation, but for only temporary periods”. In data set [3] (0.3, 1.0 and 3.0 mg/kg), the duration of efficacy is greater than 30 days and the “performance compared with standard 90 mg dose of pamidronate” value is “performed similarly”.

The values above are taken from patent US20100068211A1, “USE OF ANTIRESORPTIVE COMPOUNDS TO PREVENT IONIZING RADIATION-INDUCED ACTIVATION OF OSTEOCLASTS AND RESULTING BONE LOSS” (priority 2008, published 2010).
